Source: patent US20240390295A1, “METHODS FOR TREATING DEPRESSION” (JANSSEN PHARMACEUTICA NV, priority 2020, published 2024)
Values joined by “and” are separate entries in the source; they are usually repeats but may differ in a detail not shown here. Identical values can stand only once.

Test system: adult patients (aged 18-64 years) with TRD
Assay: Clinician-reported adverse events: incidence and recurrence by Week 1/Week 4 frequency, pooled studies 1 and 2 (ESK + OAD)
Type: in vivo, human
Text: Data were pooled from adult patients (aged 18-64 years) with TRD. Patients had recurrent or single-episode (>2 years) MDD (DSM-5), a Clinician-Rated Inventory of Depressive Symptomatology score of >3 and a total Montgomery-Åsberg Depression Rating Scale (MADRS) score of >2. At screening, depressive symptoms had been non-responsive to adequate trials of ≥1 and ≤5 commercially available OAD in the current depressive episode. Non response was further confirmed by a prospective trial of a different OAD lasting ≥4 weeks and during the screening phase.
In brief, study 1 was a double-blind, placebo-controlled relapse prevention trial comparing the efficacy of ESK versus placebo nasal spray, both in conjunction with a Food and Drug Administration (FDA)-approved OAD, in delaying relapse of depressive symptoms in patients with TRD who were either in stable remission or stable response after four months' treatment with ESK in conjunction with a FDA-approved OAD. Study 2 was an open-label, multicenter study that assessed the long-term safety and efficacy of ESK in conjunction with an FDA-approved OAD in patients with TRD.
The analysis was limited to the two doses of ESK (56 mg and 84 mg) approved for use by the FDA for patients with TRD. Patients received ESK (56 or 84 mg) in conjunction with an OAD twice weekly during the induction phase (Weeks 1-4); once weekly during Weeks 5-8 of the optimization phase: either once weekly or every other week during the remainder of the 12-week optimization phase and the maintenance phase (individualized according to the severity of depressive symptoms [MADRS total score≤/>12] and tolerability).
Patients were monitored for >90 minutes after ESK administration at each treatment session, after which time they could leave the clinical site at the clinician's discretion. AEs were monitored and reported, and safety assessments, including clinical laboratory tests and physical examinations, were conducted throughout the study. Clinician-reported AEs were categorized as mild, moderate, or severe based on clinical judgement (Table 1).
This analysis included any treatment sessions in which patients received ESK (either open-label or blinded). The occurrence and severity of AEs were assessed within the following timeframes: Month 1 (Week 1 and Weeks 2-4), Month 2 (Weeks 5-8), Months 3-6 and Months 6-12. Severity of clinician-reported AEs were scored as 0 (no AE), 1 (mild), 2 (moderate), and 3 (severe). To examine AEs in individual patients over time, only patients who received at least one ESK dose in the following period were included in the analyses of each respective period. Thus, patient data were retained in (i) Week 1 if the patient received ≥1 ESK dose in Weeks 2-4, (ii) Weeks 2-4 if the patient received ≥1 ESK dose in Weeks 5-8, (iii) Weeks 5-8 if the patient received ≥1 ESK dose in Months 3-6, and (iv) Months 3-6 if the patient received ≥1 ESK dose in Months 6-12.
The five most commonly reported treatment-emergent events occurring with ESK plus OAD therapy (dissociation, dizziness, nausea, sedation, and vertigo) were evaluated, each of which has an incidence ≥5% and at least a 2-fold greater incidence than with placebo plus an OAD. 14 Increases in BP were also examined.
Week 1 and Week 4 were set a priori as index weeks because they are the beginning and end of the induction period. Frequencies and maximum-reported severities of AEs reported during these index weeks served as stratifying variables by which to examine recurrence and severities of AE recurrences in future timeframes.

[1] = Weeks 2-4, overall rate for timeframe
[2] = Weeks 5-8, overall rate for timeframe
[3] = human, in vivo, other: nasal spray, 1 week

Question: With `CN[C@]1(c2ccccc2Cl)CCCCC1=O` [esketamine, (S)-2-(2-chlorophenyl)-2-(methylamino)cyclohexanone] as the molecule, how does the Clinician-reported dissociation (Weeks 2-4, AE once in Week 1) read?
Answer: 48.2%

Question: And the “Clinician-reported increased blood pressure” value (Weeks 2-4, AE once in Week 1)?
Answer: 56.5%

Question: What about the Clinician-reported sedation (Weeks 2-4, AE once in Week 1) of the same molecule?
Answer: 36.8%

Question: What about the Dizziness (Weeks 2-4, AE once in Week 1) of the same molecule?
Answer: 51.9%

Question: And the Nausea (Weeks 2-4, AE once in Week 1)?
Answer: 28.6%

Question: And the Vertigo (Weeks 2-4, AE once in Week 1)?
Answer: 67.4%

Question: What about the Clinician-reported dissociation (Weeks 2-4, AE twice in Week 1) of the same molecule?
Answer: 86.5%

Question: What about the “Clinician-reported increased blood pressure” value (Weeks 2-4, AE twice in Week 1) of the same molecule?
Answer: 77.8%

Question: And the Clinician-reported sedation (Weeks 2-4, AE twice in Week 1)?
Answer: 70.6%

Question: And the Dizziness (Weeks 2-4, AE twice in Week 1)?
Answer: 86.4%

Question: What about the Nausea (Weeks 2-4, AE twice in Week 1) of the same molecule?
Answer: 61.9%

Question: And the Vertigo (Weeks 2-4, AE twice in Week 1)?
Answer: 90.3%

Question: What about the Clinician-reported dissociation (Weeks 2-4, No AE in Week 1) of the same molecule?
Answer: 5.6% and 5.7%

Question: And the “Clinician-reported increased blood pressure” value (Weeks 2-4, No AE in Week 1)?
Answer: 2.4%

Question: What about the Clinician-reported sedation (Weeks 2-4, No AE in Week 1) of the same molecule?
Answer: 2.1%

Question: And the Dizziness (Weeks 2-4, No AE in Week 1)?
Answer: 6.3%

Question: And the Nausea (Weeks 2-4, No AE in Week 1)?
Answer: 5.3%

Question: And the Vertigo (Weeks 2-4, No AE in Week 1)?
Answer: 5.5%

Question: And the Anxiety (Weeks 2-4, None in Week 1)?
Answer: 1.3%

Question: What about the “Feeling Drunk” value (Weeks 2-4, None in Week 1) of the same molecule?
Answer: 0.4%

Question: And the Hypoesthesia (Weeks 2-4, None in Week 1)?
Answer: 3.7%

Question: What about the Lethargy (Weeks 2-4, None in Week 1) of the same molecule?
Answer: 1.0%

Question: What about the Vomiting (Weeks 2-4, None in Week 1) of the same molecule?
Answer: 2.4%

Question: And the Anxiety (Weeks 2-4, Once in Week 1)?
Answer: 11.8%

Question: What about the “Feeling Drunk” value (Weeks 2-4, Once in Week 1) of the same molecule?
Answer: 30.8%

Question: And the Hypoesthesia (Weeks 2-4, Once in Week 1)?
Answer: 54.3%

Question: And the Lethargy (Weeks 2-4, Once in Week 1)?
Answer: 71.4%

Question: And the Vomiting (Weeks 2-4, Once in Week 1)?
Answer: 31.0%

Question: What about the Anxiety (Weeks 2-4, Overall) of the same molecule?
Answer: 1.7%

Question: What about the “Feeling Drunk” value (Weeks 2-4, Overall) of the same molecule?
Answer: 1.9%

Question: And the Hypoesthesia (Weeks 2-4, Overall)?
Answer: 7.2%

Question: What about the Lethargy (Weeks 2-4, Overall) of the same molecule?
Answer: 1.5%

Question: And the Vomiting (Weeks 2-4, Overall)?
Answer: 3.3%

Question: What about the Anxiety (Weeks 2-4, Twice in Week 1) of the same molecule?
Answer: 100%

Question: What about the “Feeling Drunk” value (Weeks 2-4, Twice in Week 1) of the same molecule?
Answer: 90.9%

Question: What about the Hypoesthesia (Weeks 2-4, Twice in Week 1) of the same molecule?
Answer: 76.2%

Question: And the Lethargy (Weeks 2-4, Twice in Week 1)?
Answer: 0%

Question: And the Vomiting (Weeks 2-4, Twice in Week 1)?
Answer: 0%

Question: What about the Clinician-reported dissociation [1] of the same molecule?
Answer: 16.1%

Question: And the “Clinician-reported increased blood pressure” value [1]?
Answer: 5.2%

Question: And the Clinician-reported sedation [1]?
Answer: 4.1%

Question: What about the Dizziness [1] of the same molecule?
Answer: 19.2%

Question: What about the Nausea [1] of the same molecule?
Answer: 9.4%

Question: And the Vertigo [1]?
Answer: 15.0%

Question: And the Clinician-reported dissociation (Weeks 5-8, AE once in Week 1)?
Answer: 29.8%

Question: And the “Clinician-reported increased blood pressure” value (Weeks 5-8, AE once in Week 1)?
Answer: 40.9%

Question: And the Clinician-reported sedation (Weeks 5-8, AE once in Week 1)?
Answer: 22.2%

Question: What about the Dizziness (Weeks 5-8, AE once in Week 1) of the same molecule?
Answer: 30.8%

Question: And the Nausea (Weeks 5-8, AE once in Week 1)?
Answer: 16.1%

Question: What about the Vertigo (Weeks 5-8, AE once in Week 1) of the same molecule?
Answer: 45.2%

Question: What about the Clinician-reported dissociation (Weeks 5-8, AE twice in Week 1) of the same molecule?
Answer: 60.0%

Question: And the “Clinician-reported increased blood pressure” value (Weeks 5-8, AE twice in Week 1)?
Answer: 55.6%

Question: What about the Clinician-reported sedation (Weeks 5-8, AE twice in Week 1) of the same molecule?
Answer: 52.9%

Question: And the Dizziness (Weeks 5-8, AE twice in Week 1)?
Answer: 62.5%

Question: What about the Nausea (Weeks 5-8, AE twice in Week 1) of the same molecule?
Answer: 30.0%

Question: What about the Vertigo (Weeks 5-8, AE twice in Week 1) of the same molecule?
Answer: 67.6%

Question: And the Clinician-reported dissociation (Weeks 5-8, No AE in Week 1)?
Answer: 6.1%

Question: What about the “Clinician-reported increased blood pressure” value (Weeks 5-8, No AE in Week 1) of the same molecule?
Answer: 1.9%

Question: And the Clinician-reported sedation (Weeks 5-8, No AE in Week 1)?
Answer: 1.2%

Question: And the Dizziness (Weeks 5-8, No AE in Week 1)?
Answer: 3.7%

Question: And the Nausea (Weeks 5-8, No AE in Week 1)?
Answer: 1.7%

Question: What about the Vertigo (Weeks 5-8, No AE in Week 1) of the same molecule?
Answer: 3.0%

Question: And the Anxiety (Weeks 5-8, None in Week 1)?
Answer: 0.8%

Question: What about the “Feeling Drunk” value (Weeks 5-8, None in Week 1) of the same molecule?
Answer: 0.1%

Question: What about the Hypoesthesia (Weeks 5-8, None in Week 1) of the same molecule?
Answer: 1.6%

Question: And the Lethargy (Weeks 5-8, None in Week 1)?
Answer: 1.1%

Question: What about the Vomiting (Weeks 5-8, None in Week 1) of the same molecule?
Answer: 1.5%

Question: And the Anxiety (Weeks 5-8, Once in Week 1)?
Answer: 5.9%

Question: What about the “Feeling Drunk” value (Weeks 5-8, Once in Week 1) of the same molecule?
Answer: 16.7%

Question: What about the Hypoesthesia (Weeks 5-8, Once in Week 1) of the same molecule?
Answer: 20.7%

Question: What about the Lethargy (Weeks 5-8, Once in Week 1) of the same molecule?
Answer: 40.0%

Question: And the Vomiting (Weeks 5-8, Once in Week 1)?
Answer: 21.1%

Question: What about the Anxiety (Weeks 5-8, Overall) of the same molecule?
Answer: 1.0%

Question: And the “Feeling Drunk” value (Weeks 5-8, Overall)?
Answer: 1.6%

Question: And the Hypoesthesia (Weeks 5-8, Overall)?
Answer: 3.4%

Question: And the Lethargy (Weeks 5-8, Overall)?
Answer: 1.2%

Question: And the Vomiting (Weeks 5-8, Overall)?
Answer: 1.8%

Question: And the Anxiety (Weeks 5-8, Twice in Week 1)?
Answer: 50.0%

Question: What about the “Feeling Drunk” value (Weeks 5-8, Twice in Week 1) of the same molecule?
Answer: 90.9%

Question: And the Hypoesthesia (Weeks 5-8, Twice in Week 1)?
Answer: 58.3%

Question: And the Lethargy (Weeks 5-8, Twice in Week 1)?
Answer: 0%

Question: And the Vomiting (Weeks 5-8, Twice in Week 1)?
Answer: 0%

Question: And the Clinician-reported dissociation [2]?
Answer: 12.6%

Question: What about the “Clinician-reported increased blood pressure” value [2] of the same molecule?
Answer: 3.9%

Question: What about the Clinician-reported sedation [2] of the same molecule?
Answer: 2.6%

Question: What about the Dizziness [2] of the same molecule?
Answer: 12.5%

Question: What about the Nausea [2] of the same molecule?
Answer: 4.0%

Question: And the Vertigo [2]?
Answer: 9.9%

Question: And the “increased blood pressure reported” value (all subsequent postdose monitoring periods, no increased blood pressure in week 1)?
Answer: < 4%

Question: What about the “dissociation as an AE into months 3-6” value (dissociation twice in week 1) of the same molecule?
Answer: > 50%

Question: What about the “dizziness at 3-6 months” value (dizziness not reported in week 1 (exception)) of the same molecule?
Answer: 11.6%

Question: And the “patients who did not have increased blood pressure during week 1” value [3]?
Answer: 95.7%

Question: What about the “patients who did not report dissociation during week 1” value [3] of the same molecule?
Answer: 83.2%

Question: What about the “patients who did not report nausea during week 1” value [3] of the same molecule?
Answer: 86.0%

Question: What about the “impact of dose (56 or 84 mg modal dose) on AE recurrence” value (most pronounced with dissociation and dizziness) of the same molecule?
Answer: small dose effect

Question: What about the dissociation occurred (remainder of induction period, no dissociation in week 1) of the same molecule?
Answer: < 10%

Question: And the nausea reported (subsequent postdose monitoring periods, no nausea in week 1)?
Answer: < 6%
